Laboratory results published in publication PMC11578313, “Miniaturized Modular Click Chemistry‐enabled Rapid Discovery of Unique SARS‐CoV‐2 M^pro Inhibitors With Robust Potency and Drug‐like Profile” (Advanced Science, 2024).
“And” between values parts separate entries of the source, which are not always exact repeats. Equal values may be shown once. Read-outs that look alike come from different tables or passages of the source.

Assay: In vivo pharmacokinetic study in male ICR mice (compound alone)
Conditions: for C0: read-out: C0
Experimental: The pharmacokinetics profile of the newly developed antiviral compound C5N17B was subsequently evaluated in male ICR mice that were free from specific pathogens, aiming to assess its potential for therapeutic application in vivo.
A total of six male ICR mice were randomly assigned to two groups. One group received the test drug intravenously at a dosage of 2 mg kg^−1, while the other group received oral administration at a dosage of 10 mg kg^−1. To prepare solutions of C5N17B, 2.39 mg compound was dissolved in a mixture of 0.119 mL DMSO, 0.238 mL polyoxyl 15 hydroxystearate (Solutol), and 2.027 mL normal saline. For the intravenous group, blood samples were collected from the sinus jugular into heparinized centrifugation tubes at various time points after dosing: 5, 15, 30 min, 1, 2, 4, 6, 8, and 24 h. As for the oral administration group, blood samples were collected at similar time points (0.05 mL of blood each time). The collected blood samples were then centrifuged at a speed of 4000 rpm for 10 min to separate plasma, which was subsequently stored at −20 °C until further LC‐MS analysis to determine the concentration of C5N17B. Briefly, the analysis involved adding 20 µL of plasma, sample calibration standard, quality control, and dilution quality control, and blank samples into respective wells on a 96‐well plate. Then each sample was quenched with 200 µL of internal standard (the blank sample was quenched with 200 µL of ACN: MeOH = 1:1), followed by vortex‐mixed for 5 min, and centrifuged for 0.5 min at 4000 rpm, 4 °C. Next, a 100 µL portion of supernatant was transferred to another clean 96‐well plate and diluted with 100 µL of water, vortex‐mixed for 5 min and centrifuged for 10 min at 4000 rpm, 4 °C, then the sample was injected for LC‐MS/MS analysis. All samples were quantified using an LC‐MS/MS‐AR Triple Quad 5500+ (SCIEX, USA) and the ExionLC liquid phase system. The mobile phase was 0.1% formic acid‐water/ACN with gradient elute at a flow rate of 0.8 mL mi^−1n (total time 2.20 min), and the detection wavelength was 225 nm. All blood samples were centrifuged using an Eppendorf 5424R centrifuge and quantified using an LC‐MS/MS‐AR Triple Quad 5500+ (SCIEX, USA). The pharmacokinetic parameters were calculated by WinNolin 8.2 software.

[1] = PO 10 mg/kg, individual mice 4-6, 10 mg/kg
[2] = i.v. 2 mg kg^−1, male ICR mice, n = 3

For `Cc1cncc(C(=O)N2C[C@H]3CC[C@@H](C2)N3[C@H](c2cccc(F)c2)c2cn(CCc3ccsc3)nn2)c1` [Compound C5N17B], the MRTINF_pred [1] was 295 min and 184.93 min and 381.5 min, the MRTlast [1] was 113.8 min and 110 min and the Tlast [1] was 4 h and 6 h. For the same compound, the Vz_F_obs [1] was 837.29 L/kg and 630.24 L/kg and 684.762 L/kg, the Vz_F_pred [1] was 906.828 L/kg and 630.882 L/kg and 737.02 L/kg and the “F, Mean” value (PO 10 mg/kg, mean of mice 4#-6#) was 13.0%. The “C0, i.v.” value [2] was 514 ± 164.7 ng/mL, the “t1/2, i.v.” value [2] was 6.36 ± 0.341 min and the concentration at 5 min (male, ICR, mouse, plasma, iv, 2 mg/kg, IV 2 mg/kg, 5 min (5 min), mouse plasma, individual mice 1#-3#, read-out: Plasma concentration (Calculated Concentration)) was 292 ng/mL. The concentration at 5 min (male, ICR, mouse, plasma, iv, 2 mg/kg, IV 2 mg/kg, 5 min, individual mice, read-out: plasma concentration) was 233 ng/mL, the concentration at 5 min (male, ICR, mouse, plasma, iv, 2 mg/kg, IV 2 mg/kg, 5 min, mean of mice 1#-3#, read-out: Plasma concentration, Mean) was 237 ng/mL and the concentration at 0.5 h (male, ICR, mouse, plasma, iv, 2 mg/kg, IV 2 mg/kg, 0.5 h (30 min), mouse plasma, individual mice 1#-3#, read-out: Plasma concentration (Calculated Concentration)) was 18.4 ng/mL. For the same compound, the concentration at 0.5 h (male, ICR, mouse, plasma, iv, 2 mg/kg, IV 2 mg/kg, 0.5 h, individual mice, read-out: plasma concentration) was 16.1 ng/mL, the concentration at 0.5 h (male, ICR, mouse, plasma, iv, 2 mg/kg, IV 2 mg/kg, 0.50 h, mean of mice 1#-3#, read-out: Plasma concentration, Mean) was 14.9 ng/mL and the concentration at […] (male, ICR, mouse, plasma, iv, 2 mg/kg, IV 2 mg/kg, […] (15 min), mouse plasma, individual mice 1#-3#, read-out: Plasma concentration (Calculated Concentration)) was 55.3 ng/mL. For the same compound, the AUC(0-t) (male, ICR, mouse, plasma, iv, 2 mg/kg, IV 2 mg/kg, individual mice 1#-3#, read-out: AUC0-t) was 78.3 ng·h/mL, the AUC(0-inf) (male, ICR, mouse, plasma, iv, 2 mg/kg, IV 2 mg/kg, individual mice 1#-3#, read-out: AUC0-∞) was 81.1 ng·h/mL and the C0 (male, ICR, mouse, plasma, iv, 2 mg/kg, IV 2 mg/kg, individual mice 1#-3#) was 671 ng/mL. It also gave a clearance (male, ICR, mouse, plasma, iv, 2 mg/kg, IV 2 mg/kg, individual mice 1#-3#, read-out: Cl (converted)) of 411 mL/min/kg, a Cmax (male, ICR, mouse, plasma, iv, 2 mg/kg, IV 2 mg/kg, individual mice 1#-3#, read-out: Cmax) of 292 ng/mL and an MRT last (male, ICR, mouse, plasma, iv, 2 mg/kg, IV 2 mg/kg, individual mice 1#-3#, read-out: MRT0-t) of 5.42 min. It also gave an MRT inf (male, ICR, mouse, plasma, iv, 2 mg/kg, IV 2 mg/kg, individual mice 1#-3#, read-out: MRT0-∞) of 6.6 min, a half-life (male, ICR, mouse, plasma, iv, 2 mg/kg, IV 2 mg/kg, individual mice 1#-3#, read-out: T1/2 (converted)) of 6.42 min and a Tmax (male, ICR, mouse, plasma, iv, 2 mg/kg, IV 2 mg/kg, individual mice 1#-3#, read-out: Tmax) of 5 min. For the same compound, the Vd (male, ICR, mouse, plasma, iv, 2 mg/kg, IV 2 mg/kg, individual mice 1#-3#, read-out: Vz) was 3.82 L/kg, the AUC(0-inf) (male, ICR, mouse, plasma, iv, 2 mg/kg, IV 2 mg/kg, individual mice 1-3, read-out: AUCINF_obs) was 81.1 ng·h/mL and the AUC(0-inf) (male, ICR, mouse, plasma, iv, 2 mg/kg, IV 2 mg/kg, individual mice 1-3, read-out: AUCINF_pred) was 80.7 ng·h/mL. For the same compound, the AUC (male, ICR, mouse, plasma, iv, 2 mg/kg, IV 2 mg/kg, individual mice 1-3, read-out: AUCall) was 78.3 ng·h/mL, the AUC(0-t) (male, ICR, mouse, plasma, iv, 2 mg/kg, IV 2 mg/kg, individual mice 1-3, read-out: AUClast) was 78.3 ng·h/mL and the C0 (male, ICR, mouse, plasma, iv, 2 mg/kg, IV 2 mg/kg, individual mice 1-3) was 671 ng/mL. For the same compound, the clearance (male, ICR, mouse, plasma, iv, 2 mg/kg, IV 2 mg/kg, individual mice 1-3, read-out: Cl_obs (converted)) was 411 mL/min/kg, the concentration at 0.5 h (male, ICR, mouse, plasma, iv, 2 mg/kg, IV 2 mg/kg, individual mice 1-3, read-out: Clast) was 18.4 ng/mL and the Cmax (male, ICR, mouse, plasma, iv, 2 mg/kg, IV 2 mg/kg, individual mice 1-3, read-out: Cmax) was 292 ng/mL. The k el (male, ICR, mouse, plasma, iv, 2 mg/kg, IV 2 mg/kg, individual mice 1-3, read-out: Lambda_z (converted)) was 0.00179 s⁻¹, the MRT inf (male, ICR, mouse, plasma, iv, 2 mg/kg, IV 2 mg/kg, individual mice 1-3, read-out: MRTINF_obs) was 6.61 min and the MRT inf (male, ICR, mouse, plasma, iv, 2 mg/kg, IV 2 mg/kg, individual mice 1-3, read-out: MRTINF_pred) was 6.45 min. The MRT last (male, ICR, mouse, plasma, iv, 2 mg/kg, IV 2 mg/kg, individual mice 1-3, read-out: MRTlast) was 5.42 min, the Tmax (male, ICR, mouse, plasma, iv, 2 mg/kg, IV 2 mg/kg, individual mice 1-3, read-out: Tmax) was 5 min and the AUC(0-t) (male, ICR, mouse, plasma, iv, 2 mg/kg, IV 2 mg/kg, mean of mice 1#-3#, read-out: AUC0-t, Mean) was 63.6 ng·h/mL. For the same compound, the AUC(0-inf) (male, ICR, mouse, plasma, iv, 2 mg/kg, IV 2 mg/kg, mean of mice 1#-3#, read-out: AUC0-∞, Mean) was 65.9 ng·h/mL, the clearance (male, ICR, mouse, plasma, iv, 2 mg/kg, IV 2 mg/kg, mean of mice 1#-3#, read-out: Cl, Mean (converted)) was 524 mL/min/kg and the Cmax (male, ICR, mouse, plasma, iv, 2 mg/kg, IV 2 mg/kg, mean of mice 1#-3#, read-out: Cmax, Mean) was 237 ng/mL. The MRT last (male, ICR, mouse, plasma, iv, 2 mg/kg, IV 2 mg/kg, mean of mice 1#-3#, read-out: MRT0-t, Mean) was 5.81 min, the MRT inf (male, ICR, mouse, plasma, iv, 2 mg/kg, IV 2 mg/kg, mean of mice 1#-3#, read-out: MRT0-∞, Mean) was 6.96 min and the half-life (male, ICR, mouse, plasma, iv, 2 mg/kg, IV 2 mg/kg, mean of mice 1#-3#, read-out: T1/2, Mean (converted)) was 6.36 min. The Tmax (male, ICR, mouse, plasma, iv, 2 mg/kg, IV 2 mg/kg, mean of mice 1#-3#, read-out: Tmax, Mean) was 5 min, the Vd (male, ICR, mouse, plasma, iv, 2 mg/kg, IV 2 mg/kg, mean of mice 1#-3#, read-out: Vz, Mean) was 4.79 L/kg and the AUC (male, ICR, mouse, plasma, iv, 2 mg/kg, i.v. 2 mg kg^−1, male ICR mice, n = 3, read-out: AUC0‐t, i.v.) was 63.6 ± 14.2 ng·h/mL.
